Reference: patent US20250270209A1 (INTERLINE THERAPEUTICS, INC., priority 2022, published 2025)

What was measured:
LRRK2 wild type enzyme = LRRK2 wild type enzyme (Homo sapiens, UniProt Q5S007); test: Biochemical Assay: LRRK2 TR-FRET (LanthaScreen) kinase assay with LRRKtide substrate; settings: LRRK2 Inhibition, Table 8
Protocol: 10 mM compound solution was prepared in DMSO. An 11-point, 3-fold dilution was performed, with highest concentration at 10 μM. A 10 mM compound DMSO solution was added to Labcyte LDV plate and the compound concentration of source plate was 10 mM. The 1st compound concentration of Inter plate(Labcyte 384 well PP plate) was 4.938×10^−1 mM which was prepared by transferring 1.5 μL of 10 mM compound from source plate to 28.9 μL DMSO. The 2nd compound concentration of Inter plate was 1.829×10^−2 mM which was prepared by transferring 60 nL of 10 mM compound from source plate to 32.7 μL DMSO. The 3rd compound concentration of Inter plate was 6.774×10^−4 mM which was prepared by transferring 2.5 nL of 10 mM compound from source plate to 36.9 μL DMSO. 100 nL of reference compound was dispensed in column 1 for low control wells and 100 nL of DMSO in column 24 for high control wells. Compounds were dispensed to column 2 to 23 of assay plate and backfilled with DMSO to a total volume of 100 nL.
A 2X LRRK2 enzyme solution (final concentration 3 nM) was prepared in assay buffer (Tris-HCl pH8.0:50 mM, MgCl2: 5 mM, EDTA: 1 mM, Brij-35:0.01%, 2 mM DTT). A 2× substrate solution was prepared: LRRK2 tide substrate (final concentration 400 nM) and ATP (final concentration 25 μM) in assay buffer. 5 μL 2× LRRK2 enzyme solution was dispensed to each well in assay plate by Multidrop. Assay plate was spun at 1,000 rpm for 1 min and incubated for 15 min at 23° C. 5 μL 2× ATP/LRRKtide solution was dispensed to each well in assay plate by Multidrop. Assay plate was spun at 1,000 rpm for 1 min and incubated for 120 min at 23° C.
(§1) A 2× detection solution was prepared: Tb-pERM (pLRRKtide) antibody (final concentration 0.25 nM) and EDTA (final concentration 10 mM) in TR-FRET dilution buffer. 10 μL 2× detection solution was dispensed to each well in assay plate to stop kinase reaction by Multidrop. Assay plate was spun at 1,000 rpm for 1 min and incubate for 30 min at 23° C. Assay plate was then read on Envision configured for LanthaScreen® TR-FRET. pS935 LRRK2 Cell Assay

[1] = target: T1, wild type LRRK2 overexpressed in recombinant HEK-293T cells (Homo sapiens, UniProt Q5S007); test: pS935 LRRK2 Cell Assay (HTRF, phospho-LRRK2 Ser935); format: cell-based; settings: LRRK2 Inhibition, Table 8, 2 hours compound incubation
T1 construct: host or cells: HEK293T (transient transfection with pCMV-LRRK2 WT plasmid)
Protocol: as §1
The following protocol describes an in-vitro method for measuring phosphorylation at Ser935 on wild type LRRK2 overexpressed in recombinant HEK-293T cells. The method is based on HTRF technology, which combines Fluorescence Resonance Energy Transfer (FRET) with Time-Resolved measurement (TR). Phospho-LRRK2 (Ser935) is detected in a sandwich assay format using two different specific antibodies, one labelled with Eu3+-Cryptate (donor) and the second with d2(acceptor).When the fluorophores are in close proximity, excitation of the donor with a light source (flash lamp) stimulates FRET to the acceptor, which in turn fluoresces at a specific wavelength (665 nm). The fluorescence emission at 615 nm from the donor is also measured to allow ratiometric reduction of data. The specific signal is proportional to phospho-LRRK2 (Ser935).
Plasmid transient transfection: DMEM medium, FBS, DPBS, Trans-IT, OPTI-MEM reagents were allowed to warm to room temperature. HEK293T cells were cultured in DMEM +10% FBS complete medium in T150 flasks till around 80% confluency before transfection. Then cells were washed with 10 mL PBS and detached with 3 mL 0.25% typinsin. 30×10E6 HEK293T cells were seeded in DMEM +10% FBS complete medium to a 15 cm dish.
DNA, TransIT-LT1, OPTI-MEM complex were prepared: […] OPTI-MEM was added to a 15 mL cone tube, then […] plasmid was added to OPTI-MEM and mixed, followed by addition of 60 μL TransIT-LT1 to the plasmid OPTI-MEM mixture and mixing. The resulting mixture was incubated for 15 minutes.
The above plasmid, DNA and OPTI-MEM mixture was added dropwise to the 15 cm dish, ensuring the drops were evenly distributed. The culture dish was gently rocked back and forth and from left to right to evenly distribute the complex. The tranfected dish was incubated for 24 hours at 37° C., and 5% CO2.
Transfected HEK293T was collected in the 15 cm dish. Media was aspirated from tissue culture dish, and washed by dispensing 10 mL 1× DPBS into 15 cm dish. 1× DPBS was aspirated and 3 mL trypsin was dispensed to 15 cm dish. The dish was incubated with trypsin at room temperature for 3 min until the cells were detached. 10 mL of DMEM +10% FBS medium were added to 15 cm dish and triturated to ensure homogenous cell suspensions.
Homogenous cell suspensions were transferred to a 50 mL tube, and centrifuged for 5 minutes at 1,000 rmp/min. The supernatant was aspirated and resuspended with 20 mL complete medium. 1 mL of cell suspension was transferred for cell counting. The cell suspension was diluted to 2× 10E5 cells/ml. 50 μL cell suspensions were added to a 384-well plate. The plate was quick spun at 800 rpm for 1 minute, then incubate overnight at 37° C., 5% CO2.
Compound dispensing: compound was diluted (10 mM DMSO stock solution) and added to assay plate (top concentration: 10 μM, 3 fold serial dilution, 9 doses) with duplicates by Tecan liquid handler. The DMSO concentration of each well was normalized to 0.2%. Plates were quick spun at 1,000 rpm for 1 minute. Plates were incubated at 37° C., 5% CO2 for 2 hours.
1× lysis buffer solution supplemented with blocking reagent was prepared (e.g. 1 mL lysis buffer 4X+3 mL water+40 μL stock blocking reagent 100X). Antibodies working solution was prepared by diluting 40-fold d2 and Cryptate antibodies with detection buffer(e.g. 1520 μL detection buffer+40 μL d2-antibody stock solution+[…] Cryptate-antibody stock solution).
After 2 hours incubation, cell plates were taken out from the incubator. […]

T1 sequence (Q5S007 whole entry): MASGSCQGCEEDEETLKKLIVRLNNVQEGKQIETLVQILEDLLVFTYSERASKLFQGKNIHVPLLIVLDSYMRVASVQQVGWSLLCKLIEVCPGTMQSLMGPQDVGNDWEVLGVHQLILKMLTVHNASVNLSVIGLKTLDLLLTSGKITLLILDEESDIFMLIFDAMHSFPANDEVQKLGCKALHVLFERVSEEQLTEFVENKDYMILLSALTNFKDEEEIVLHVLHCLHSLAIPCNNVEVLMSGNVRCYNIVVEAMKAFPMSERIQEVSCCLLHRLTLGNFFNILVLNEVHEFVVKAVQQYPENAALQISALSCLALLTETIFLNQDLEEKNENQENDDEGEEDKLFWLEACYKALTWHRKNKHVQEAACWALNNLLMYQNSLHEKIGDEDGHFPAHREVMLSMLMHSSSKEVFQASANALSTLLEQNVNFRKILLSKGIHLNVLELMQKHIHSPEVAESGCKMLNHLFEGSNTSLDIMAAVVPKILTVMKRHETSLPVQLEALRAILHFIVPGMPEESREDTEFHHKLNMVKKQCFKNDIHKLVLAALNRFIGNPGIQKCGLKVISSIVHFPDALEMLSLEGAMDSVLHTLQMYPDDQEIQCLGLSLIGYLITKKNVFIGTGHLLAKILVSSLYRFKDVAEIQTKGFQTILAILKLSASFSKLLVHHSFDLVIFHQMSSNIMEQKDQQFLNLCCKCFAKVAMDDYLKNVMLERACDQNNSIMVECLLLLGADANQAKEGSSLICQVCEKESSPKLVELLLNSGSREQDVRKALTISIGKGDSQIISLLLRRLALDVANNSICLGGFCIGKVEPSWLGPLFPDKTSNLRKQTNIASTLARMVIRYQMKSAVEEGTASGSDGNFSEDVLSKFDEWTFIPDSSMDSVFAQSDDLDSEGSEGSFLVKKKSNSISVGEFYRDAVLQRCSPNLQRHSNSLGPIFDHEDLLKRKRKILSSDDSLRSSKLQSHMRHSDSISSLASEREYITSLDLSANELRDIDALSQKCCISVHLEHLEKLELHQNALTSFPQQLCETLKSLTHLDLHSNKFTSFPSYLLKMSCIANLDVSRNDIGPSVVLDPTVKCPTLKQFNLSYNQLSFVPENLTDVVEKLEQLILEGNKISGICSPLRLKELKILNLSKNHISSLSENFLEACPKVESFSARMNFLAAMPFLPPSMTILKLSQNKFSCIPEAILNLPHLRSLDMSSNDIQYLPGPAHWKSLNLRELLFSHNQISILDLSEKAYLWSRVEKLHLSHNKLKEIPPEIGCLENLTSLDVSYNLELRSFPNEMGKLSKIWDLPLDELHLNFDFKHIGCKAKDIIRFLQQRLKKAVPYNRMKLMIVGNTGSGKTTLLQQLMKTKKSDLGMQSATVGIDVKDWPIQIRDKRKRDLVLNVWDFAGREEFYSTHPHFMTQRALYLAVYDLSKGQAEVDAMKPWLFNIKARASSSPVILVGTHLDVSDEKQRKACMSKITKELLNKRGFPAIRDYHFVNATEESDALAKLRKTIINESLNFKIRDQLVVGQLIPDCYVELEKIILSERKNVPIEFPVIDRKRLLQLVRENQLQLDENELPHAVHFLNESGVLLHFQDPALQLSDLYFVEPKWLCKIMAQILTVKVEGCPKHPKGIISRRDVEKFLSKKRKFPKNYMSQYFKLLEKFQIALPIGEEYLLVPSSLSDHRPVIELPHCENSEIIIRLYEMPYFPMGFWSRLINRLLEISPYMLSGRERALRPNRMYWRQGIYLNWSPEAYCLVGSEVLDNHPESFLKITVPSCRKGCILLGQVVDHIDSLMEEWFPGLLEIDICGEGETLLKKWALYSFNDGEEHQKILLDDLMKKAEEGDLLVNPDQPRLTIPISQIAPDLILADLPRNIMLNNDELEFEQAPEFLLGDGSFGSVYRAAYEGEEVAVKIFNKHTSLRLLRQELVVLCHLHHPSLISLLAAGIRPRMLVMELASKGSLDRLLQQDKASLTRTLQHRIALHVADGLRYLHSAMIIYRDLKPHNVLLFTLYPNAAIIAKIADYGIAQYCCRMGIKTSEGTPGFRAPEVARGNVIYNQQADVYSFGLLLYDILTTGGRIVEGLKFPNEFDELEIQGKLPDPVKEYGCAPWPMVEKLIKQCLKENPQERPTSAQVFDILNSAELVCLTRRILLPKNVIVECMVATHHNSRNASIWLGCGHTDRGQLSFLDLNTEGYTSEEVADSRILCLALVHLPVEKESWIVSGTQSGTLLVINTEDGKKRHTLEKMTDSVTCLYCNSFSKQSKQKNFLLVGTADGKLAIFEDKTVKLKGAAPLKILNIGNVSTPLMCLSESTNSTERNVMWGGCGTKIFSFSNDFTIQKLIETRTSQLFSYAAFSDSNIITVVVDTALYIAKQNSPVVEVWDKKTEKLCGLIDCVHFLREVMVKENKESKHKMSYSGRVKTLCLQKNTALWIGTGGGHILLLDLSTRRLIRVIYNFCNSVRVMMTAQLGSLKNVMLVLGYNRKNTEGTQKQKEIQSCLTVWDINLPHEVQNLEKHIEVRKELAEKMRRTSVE
LRRK2 wild type enzyme, sequence (Q5S007 whole entry): as above

Row | Structure (SMILES) | IC50 (LRRK2 wild type enzyme) [nM] | IC50 [1] [nM]
1 | C[C@@H]1C[C@H](n2c(C3CC(=O)N(c4ccnn4C)C3)nc3cnc4ccc(C#N)cc4c32)CCO1 (stereo partly drawn) [Compound 103, 2-[1-(1-methyl-1H-pyrazol-5-yl)-5-oxopyrrolidin-3-yl]-1-[(2R,4R)-2-methyloxan-4-yl]-1H-imidazo[4,5-c]quinoline-8-carbonitrile] | 1.98 | 400
2 | Cc1c(NC(=O)Cc2nc3cnc4ccc(C#N)cc4c3n2[C@@H]2CCO[C@H](C)C2)cnn1C [Compound 237, N-(1-methyl-5-methyl-4-pyrazolyl){3-[(2R,4R)-2-methyltetrahydro-2H-pyran-4-yl]-12-cyano-3,5,8-triazatricyclo[7.4.0.0^2,6]trideca-1,4,6,8,10,12-hexaen-4-yl}acetamide] | 0.405 | 23.4
3 | C[C@@H]1C[C@H](n2c(CC(=O)Nc3cccn(C)c3=O)nc3cnc4ccc(C#N)cc4c32)CCO1 [Compound 263, N-(1-methyl-2-oxo-1,2-dihydro-3-pyridyl){3-[(2R,4R)-2-methyltetrahydro-2H-pyran-4-yl]-12-cyano-3,5,8-triazatricyclo[7.4.0.0^2,6]trideca-1,4,6,8,10,12-hexaen-4-yl}acetamide] | 0.476 | 8.93
4 | C[C@@H]1C[C@H](n2c(CC(=O)Nc3cccnc3C#N)nc3cnc4ccc(C#N)cc4c32)CCO1 [Compound 272, N-(2-cyano-3-pyridyl){3-[(2R,4R)-2-methyltetrahydro-2H-pyran-4-yl]-12-cyano-3,5,8-triazatricyclo[7.4.0.0^2,6]trideca-1,4,6,8,10,12-hexaen-4-yl}acetamide] | 0.549 | 12.5
5 | COc1cc(F)c(NC(=O)Cc2nc3cnc4ccc(C#N)cc4c3n2[C@@H]2CCO[C@H](C)C2)cn1 [Compound 235, N-(4-fluoro-6-methoxy-3-pyridyl){3-[(2R,4R)-2-methyltetrahydro-2H-pyran-4-yl]-12-cyano-3,5,8-triazatricyclo[7.4.0.0^2,6]trideca-1,4,6,8,10,12-hexaen-4-yl}acetamide] | 0.458 | 9.9
6 | C[C@@H]1C[C@H](n2c(CC3CN(C(=O)c4cnn(C)c4)C3)nc3cnc4ccc(C#N)cc4c32)CCO1 [Compound 60, 2-{[1-(1-methyl-1H-pyrazole-4-carbonyl)azetidin-3-yl]methyl}-1-[(2R,4R)-2-methyloxan-4-yl]-1H-imidazo[4,5-c]quinoline-8-carbonitrile] | 4.29 | 1550
7 | CO[C@H]1C[C@@H](NC(=O)Cc2nc3cnc4ccc(C#N)cc4c3n2[C@@H]2CCO[C@H](C)C2)C1 [Compound 301, N-[(1s,3s)-3-methoxycyclobutyl]{3-[(2R,4R)-2-methyltetrahydro-2H-pyran-4-yl]-12-cyano-3,5,8-triazatricyclo[7.4.0.0^2,6]trideca-1,4,6,8,10,12-hexaen-4-yl}acetamide] | 0.701 | 41.3
8 | C[C@@H]1C[C@H](n2c(CC(=O)NCc3cccc(F)n3)nc3cnc4ccc(C#N)cc4c32)CCO1 [Compound 146, 2-{8-cyano-1-[(2R,4R)-2-methyloxan-4-yl]-1H-imidazo[4,5-c]quinolin-2-yl}-N-[(6-fluoropyridin-2-yl)methyl]acetamide] | 0.313 | 4.79
9 | C[C@@H]1C[C@H](n2c(CNS(C)(=O)=O)nc3cnc4ccc(C#N)cc4c32)CCO1 [Compound 21, N-({8-cyano-1-[(2R,4R)-2-methyloxan-4-yl]-1H-imidazo[4,5-c]quinolin-2-yl}methyl)methanesulfonamide] | 5.18 | 641
10 | C[C@@H]1C[C@H](n2c(CC(=O)Nc3cccn(CC(C)(C)O)c3=O)nc3cnc4ccc(C#N)cc4c32)CCO1 [Compound 240, N-[1-(2-hydroxy-2-methylpropyl)-2-oxo-1,2-dihydro-3-pyridyl]{3-[(2R,4R)-2-methyltetrahydro-2H-pyran-4-yl]-12-cyano-3,5,8-triazatricyclo[7.4.0.0^2,6]trideca-1(9),2(6),4,7,10,12-hexaen-4-yl}acetamide] | 0.328 | 26.7
11 | Cc1cnn(C)c1NC(=O)Cc1nc2cnc3ccc(C#N)cc3c2n1[C@@H]1CCO[C@H](C)C1 [Compound 350, N-(1-methyl-4-methyl-5-pyrazolyl){3-[(2R,4R)-2-methyltetrahydro-2H-pyran-4-yl]-12-cyano-3,5,8-triazatricyclo[7.4.0.0^2,6]trideca-1(9),2(6),4,7,10,12-hexaen-4-yl}acetamide] | 0.487 | 15.4
12 | C[C@@H]1C[C@H](n2c(C3CC(=O)N([C@@H](C)C4CC4)C3)nc3cnc4ccc(C#N)cc4c32)CCO1 (stereo partly drawn) [Compound 35, 2-{1-[(1S)-1-cyclopropylethyl]-5-oxopyrrolidin-3-yl}-1-[(2R,4R)-2-methyloxan-4-yl]-1H-imidazo[4,5-c]quinoline-8-carbonitrile] | 2.98 | 179
13 | COc1ncc(NC(=O)Cc2nc3cnc4ccc(C#N)cc4c3n2[C@@H]2CCO[C@H](C)C2)c(OC)n1 [Compound 295, N-(2,4-dimethoxy-5-pyrimidinyl){3-[(2R,4R)-2-methyltetrahydro-2H-pyran-4-yl]-12-cyano-3,5,8-triazatricyclo[7.4.0.0^2,6]trideca-1,4,6,8,10,12-hexaen-4-yl}acetamide] | 0.455 | 4.67
14 | C[C@@H]1C[C@H](n2c(CC(=O)Nc3ncc(C4CC4)cn3)nc3cnc4ccc(C#N)cc4c32)CCO1 [Compound 344, N-(5-cyclopropyl-2-pyrimidinyl){3-[(2R)-2-methyltetrahydro-2H-pyran-4-yl]-12-cyano-3,5,8-triazatricyclo[7.4.0.0^2,6]trideca-1(9),2(6),4,7,10,12-hexaen-4-yl}acetamide] | 0.453 | 4.11
15 | C[C@@H]1C[C@H](n2c(CC(N)=O)nc3cnc4ccc(C#N)cc4c32)CCO1 [Compound 16, 2-{8-cyano-1-[(2R,4R)-2-methyloxan-4-yl]-1H-imidazo[4,5-c]quinolin-2-yl}acetamide] | 1.15 | 146
